ChEMBL document CHEMBL3784998, “Synthesis and biological evaluation ofd-gluconhydroximo-1,5-lactam and its oxime-substituted derivatives as pharmacological chaperones for the treatment of Gaucher disease” (Medchemcomm, 2016)
Numbering of substitutions follows the chain as printed. Calls of active or inactive are those of the source. The calls are words filed in the database; no cut-off is given here.

Experiments:
[1] = Inhibition of almond beta glucosidase; parameters: species or system Prunus dulcis
[2] = molecular target: Beta-galactosidase (Escherichia coli K-12, UniProt P00722); experiment: Inhibition of Escherichia coli beta-galactosidase
Sequence of Beta-galactosidase (P00722 whole entry): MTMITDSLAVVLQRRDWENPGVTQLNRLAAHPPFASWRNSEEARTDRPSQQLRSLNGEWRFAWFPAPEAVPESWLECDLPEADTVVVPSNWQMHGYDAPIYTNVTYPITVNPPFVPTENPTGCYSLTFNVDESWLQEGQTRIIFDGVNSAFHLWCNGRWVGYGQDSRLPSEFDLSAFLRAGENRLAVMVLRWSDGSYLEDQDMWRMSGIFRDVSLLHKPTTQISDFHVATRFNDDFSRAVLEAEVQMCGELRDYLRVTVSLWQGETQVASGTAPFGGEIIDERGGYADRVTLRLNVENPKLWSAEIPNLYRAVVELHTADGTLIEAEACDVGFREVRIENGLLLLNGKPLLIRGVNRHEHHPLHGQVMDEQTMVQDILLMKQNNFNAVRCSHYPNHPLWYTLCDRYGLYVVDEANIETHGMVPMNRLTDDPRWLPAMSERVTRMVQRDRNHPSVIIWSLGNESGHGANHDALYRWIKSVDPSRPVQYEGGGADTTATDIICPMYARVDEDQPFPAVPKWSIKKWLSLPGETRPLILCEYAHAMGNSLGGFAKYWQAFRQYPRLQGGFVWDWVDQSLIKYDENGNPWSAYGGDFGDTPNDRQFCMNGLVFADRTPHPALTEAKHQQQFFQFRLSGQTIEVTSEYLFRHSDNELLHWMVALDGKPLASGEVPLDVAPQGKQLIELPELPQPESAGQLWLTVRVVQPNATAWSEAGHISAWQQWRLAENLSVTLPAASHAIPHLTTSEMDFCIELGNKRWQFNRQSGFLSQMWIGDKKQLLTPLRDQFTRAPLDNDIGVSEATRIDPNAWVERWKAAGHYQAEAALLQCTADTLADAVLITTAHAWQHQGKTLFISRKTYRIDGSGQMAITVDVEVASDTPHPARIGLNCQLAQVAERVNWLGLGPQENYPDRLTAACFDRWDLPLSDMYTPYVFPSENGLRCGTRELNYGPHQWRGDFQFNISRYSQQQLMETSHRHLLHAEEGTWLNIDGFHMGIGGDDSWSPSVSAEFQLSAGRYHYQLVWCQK

[3] = molecular target: Alpha-galactosidase (Coffea arabica, UniProt Q42656); experiment: Inhibition of green coffee bean alpha-galactosidase
Sequence of Alpha-galactosidase (Q42656 whole entry): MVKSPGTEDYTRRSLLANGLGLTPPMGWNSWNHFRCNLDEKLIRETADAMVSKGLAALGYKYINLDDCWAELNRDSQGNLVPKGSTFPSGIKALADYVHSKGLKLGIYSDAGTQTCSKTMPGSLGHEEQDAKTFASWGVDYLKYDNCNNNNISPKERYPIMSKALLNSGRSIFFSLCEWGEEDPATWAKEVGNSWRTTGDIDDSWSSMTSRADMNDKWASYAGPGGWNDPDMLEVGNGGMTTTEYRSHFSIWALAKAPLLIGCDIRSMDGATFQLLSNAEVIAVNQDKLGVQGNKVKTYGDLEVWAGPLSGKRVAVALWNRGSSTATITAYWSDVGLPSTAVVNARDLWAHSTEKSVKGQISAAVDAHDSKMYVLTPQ

[4] = Cytotoxicity against wild type human CCC-ESF1 cells at 100 uM after 24 hrs by MTT assay; format: cell-based; settings: ccc-esf1, 24 h
[5] = molecular target: T1, Lysosomal acid glucosylceramidase (Homo sapiens, UniProt P04062); experiment: Inhibition of human recombinant imiglucerase using 4-MU-beta-D-Glu as substrate at pH 5.2 after 30 mins by fluorometric analysis
T1 sequence (P04062 whole entry): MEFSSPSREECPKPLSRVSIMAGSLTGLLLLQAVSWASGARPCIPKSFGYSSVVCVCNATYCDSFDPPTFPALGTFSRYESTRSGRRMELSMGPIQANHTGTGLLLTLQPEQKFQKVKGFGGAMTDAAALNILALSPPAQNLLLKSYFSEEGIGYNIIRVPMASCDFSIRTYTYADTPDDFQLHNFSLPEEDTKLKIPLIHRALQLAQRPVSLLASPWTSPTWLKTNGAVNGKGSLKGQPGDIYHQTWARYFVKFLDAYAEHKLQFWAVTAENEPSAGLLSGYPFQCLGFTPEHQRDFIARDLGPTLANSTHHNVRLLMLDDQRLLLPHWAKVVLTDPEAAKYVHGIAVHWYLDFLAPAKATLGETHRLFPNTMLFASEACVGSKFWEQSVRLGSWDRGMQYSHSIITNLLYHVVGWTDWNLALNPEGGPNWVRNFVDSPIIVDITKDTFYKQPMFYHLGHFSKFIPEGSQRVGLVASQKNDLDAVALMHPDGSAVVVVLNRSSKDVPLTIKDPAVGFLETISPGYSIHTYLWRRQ

[6] = molecular target: T1, Lysosomal acid glucosylceramidase; experiment: Inhibition of human recombinant imiglucerase using 4-MU-beta-D-Glu as substrate at pH 7.0 after 30 mins by fluorometric analysis
[7] = molecular target: T1, Lysosomal acid glucosylceramidase; experiment: Competitive inhibition of human recombinant imiglucerase using 4-MU-beta-D-Glu as substrate at pH 5.2 after 30 mins by fluorometry based Lineweaver-Burk plot analysis
[8] = tested on: T2, Lysosomal acid glucosylceramidase (Homo sapiens), P04062 [N409S]; experiment: Pharmacological chaperone activity at beta-glucocerebrosidase N370S mutant in Gaucher disease patient-derived lymphoblasts with GCase N370S mutant assessed as increase in enzyme activity at 3.125 to 100 uM after 3 days by fluorimetric analysis relative to control
T2 sequence (whole entry): T1 sequence (P04062 whole entry) with N409S

[9] = tested on: T2, Lysosomal acid glucosylceramidase (Homo sapiens), P04062 [N409S]; experiment: Pharmacological chaperone activity at beta-glucocerebrosidase N370S mutant in Gaucher disease patient-derived lymphoblasts with GCase N370S mutant assessed as increase in enzyme activity at 10 uM after 3 days by fluorimetric analysis relative to control

## CCCCCCCCCN1C[C@H](O)[C@@H](O)[C@H](O)[C@H]1CO
[1]
  IC50: > 100 µM
[2]
  IC50: > 100 µM
[3]
  IC50: > 100 µM
[4]
  Activity: Non-toxic

## O=C(Nc1ccc(Oc2ccccc2)cc1)O/N=C1\N[C@H](CO)[C@@H](O)[C@H](O)[C@H]1O
[1]
  IC50: 14.4 µM
[2]
  IC50: > 100 µM
[3]
  IC50: > 100 µM
[5]
  IC50: 0.32 µM
[6]
  IC50: 3.32 µM
[7]
  Ki: 0.05 µM
[8]
  fold change (FC): 1.17
[4]
  Activity: Non-toxic

## CSc1ccc(NC(=O)O/N=C2\N[C@H](CO)[C@@H](O)[C@H](O)[C@H]2O)cc1
[1]
  IC50: 8.38 µM
[2]
  IC50: > 100 µM
[3]
  IC50: > 100 µM
[5]
  IC50: 9.15 µM
[6]
  IC50: 17.2 µM
[7]
  Ki: 8.12 µM
[8]
  fold change (FC): 1.19
[4]
  Activity: Non-toxic

## O=C(Nc1c(Cl)cccc1C(F)(F)F)O/N=C1\N[C@H](CO)[C@@H](O)[C@H](O)[C@H]1O
[1]
  IC50: 5.82 µM
[2]
  IC50: > 100 µM
[3]
  IC50: > 100 µM
[5]
  IC50: 18.1 µM
[6]
  IC50: 23.5 µM
[7]
  Ki: 12.3 µM
[8]
  fold change (FC): 1.32
[4]
  Activity: Non-toxic

## O=C(Nc1cccs1)O/N=C1\N[C@H](CO)[C@@H](O)[C@H](O)[C@H]1O
[1]
  IC50: 2.68 µM
[2]
  IC50: > 100 µM
[3]
  IC50: > 100 µM
[5]
  IC50: 0.84 µM
[6]
  IC50: 13.2 µM
[7]
  Ki: 0.64 µM
[8]
  fold change (FC): 1.36
[4]
  Activity: Non-toxic

## O=C(Nc1ccccc1)O/N=C1\N[C@H](CO)[C@@H](O)[C@H](O)[C@H]1O
[1]
  IC50: 31.1 µM
[2]
  IC50: > 100 µM
[3]
  IC50: > 100 µM
[5]
  IC50: 12.5 µM
[6]
  IC50: 19.3 µM
[7]
  Ki: 11.5 µM
[8]
  fold change (FC): 1.49
[4]
  Activity: Non-toxic

## O=C(Nc1ccc2nsnc2c1)O/N=C1\N[C@H](CO)[C@@H](O)[C@H](O)[C@H]1O
[1]
  IC50: 6.21 µM
[2]
  IC50: > 100 µM
[3]
  IC50: > 100 µM
[5]
  IC50: 5.75 µM
[6]
  IC50: 12.5 µM
[7]
  Ki: 6.38 µM
[8]
  fold change (FC): 1.23
[4]
  Activity: Non-toxic

## CCCCCCCCCCCCNC(=O)O/N=C1\N[C@H](CO)[C@@H](O)[C@H](O)[C@H]1O
[1]
  IC50: > 100 µM
[2]
  IC50: > 100 µM
[3]
  IC50: > 100 µM
[5]
  IC50: 0.7 µM
[6]
  IC50: 5.74 µM
[7]
  Ki: 0.14 µM
[8]
  fold change (FC): 1.93
[4]
  Activity: Non-toxic

## O=C(Nc1c(F)cccc1F)O/N=C1\N[C@H](CO)[C@@H](O)[C@H](O)[C@H]1O
[1]
  IC50: 7.59 µM
[2]
  IC50: > 100 µM
[3]
  IC50: > 100 µM
[5]
  IC50: 16.8 µM
[6]
  IC50: 21.9 µM
[7]
  Ki: 17.4 µM
[8]
  fold change (FC): 1.35
[4]
  Activity: Non-toxic

## OC[C@H]1CNC[C@@H](O)[C@@H]1O [AFEGOSTAT]
[1]
  IC50: > 100 µM
[2]
  IC50: > 100 µM
[3]
  IC50: > 100 µM
[8]
  fold change (FC): 1.38
[4]
  Activity: Non-toxic

## OC[C@H]1N/C(=N/O)[C@H](O)[C@@H](O)[C@@H]1O
[1]
  IC50: 80.3 µM
[9]
  Activity: inactive
[2]
  IC50: > 100 µM
[3]
  IC50: > 100 µM
[5]
  IC50: 5.84 µM
[6]
  IC50: 65.8 µM
[7]
  Ki: 4.28 µM
[8]
  fold change (FC): 1.28
[4]
  Activity: Non-toxic

## O=C(Nc1cccc2ccccc12)O/N=C1\N[C@H](CO)[C@@H](O)[C@H](O)[C@H]1O
[1]
  IC50: 10.7 µM
[2]
  IC50: > 100 µM
[3]
  IC50: > 100 µM
[5]
  IC50: 7.21 µM
[6]
  IC50: 1.43 µM
[7]
  Ki: 7.94 µM
[8]
  fold change (FC): 1.47
[4]
  Activity: Non-toxic

## CC(C)(C)NC(=O)O/N=C1\N[C@H](CO)[C@@H](O)[C@H](O)[C@H]1O
[1]
  IC50: 46 µM
[2]
  IC50: > 100 µM
[3]
  IC50: > 100 µM
[5]
  IC50: 29.1 µM
[6]
  IC50: 21.5 µM
[7]
  Ki: 30.1 µM
[8]
  fold change (FC): 1.3
[4]
  Activity: Non-toxic

## O=C(NC12CC3CC(CC(C3)C1)C2)O/N=C1\N[C@H](CO)[C@@H](O)[C@H](O)[C@H]1O
[1]
  IC50: 14.4 µM
[2]
  IC50: > 100 µM
[3]
  IC50: > 100 µM
[5]
  IC50: 1.85 µM
[6]
  IC50: 8.37 µM
[7]
  Ki: 1.52 µM
[8]
  fold change (FC): 1.35
[4]
  Activity: Non-toxic
